The source of these data is patent US7632918B2, “Semi-synthetic glycopeptides with antibiotic activity” (Novartis Vaccines and Diagnostics, Inc., priority 2005, dated 2009).

Assay in all cases: MIC, broth microdilution in Meuller-Hinton broth (NCCLS)
(Broth dilution looks for growth in wells or tubes with falling amounts of substance.)

For one assay, the system named is 533 S. epidermidis. It counts as cell-based, Staphylococus epidermidis. Particulars: clinical isolate. An outline of the steps:
(§1)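 Clinical isolates, sensitive or resistant to natural glycopeptides, tested by NCCLS broth microdilution in Mueller-Hinton broth. MIC reported in μg/ml.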

Another assay deals with 602 S. haemolyticus. It counts as cell-based, Staphylococus haemolyticus. Particulars: clinical isolate. An outline of the steps: as §1
Another assay concerns 3797 S. aureus (GISA). It counts as cell-based, Staphylococus aureus. The following applies: glycopeptides-intermediate clinical isolate. An outline of the steps: as §1
Another assay deals with 3798 S. aureus (GISA). In kind it is cell-based, Staphylococus aureus. Particulars: glycopeptides-intermediate clinical isolate. A digest of the protocol:
as §1

The next assay has as its system 568 E. faecium (GSE). It counts as cell-based. The following applies: glycopeptide-sensitive clinical isolate. An outline of the steps:
as §1

For another assay, the system named is 569 E. faecium (GRE). It counts as cell-based. Particulars: glycopeptide-resistant clinical isolate. An outline of the steps:
as §1

In a further assay the test system is 559 E. faecalis (GSE). In kind it is cell-based, Enterococcus faecalis. The following applies: glycopeptide-sensitive clinical isolate. A digest of the protocol: as §1
A further assay relates to 560 E. faecalis (GRE). It counts as cell-based, Enterococcus faecalis. The following applies: glycopeptide-resistant clinical isolate. A digest of the protocol: as §1

The structures appear in SMILES notation. ≈ marks a conversion by molar mass, not a printed value.

For `CNC(CC(C)C)C(=O)NC1C(=O)NC(CC(N)=O)C(=O)NC2C(=O)NC3C(=O)NC(C(=O)NC(C(=O)O)c4cc(O)cc(O)c4-c4cc3ccc4O)C(O)c3ccc(c(Cl)c3)Oc3cc2cc(c3OC2OC(CO)C(O)C(O)C2OC2CC(C)(NC(=O)CNCc3ccc(C(F)(F)F)cc3)C(O)C(C)O2)Oc2ccc(cc2Cl)C1O` (stereo not drawn) [Compound 290], the “MIC 533 S. epidermidis” value in the assay with 533 S. epidermidis stood at 4 µg/mL (≈ 2.4 µM). Moreover, the “MIC 602 S. haemolyticus” value in the assay on 602 S. haemolyticus was 4 µg/mL (≈ 2.4 µM). The “MIC 3797 S. aureus (GISA)” value against 3797 S. aureus (GISA) was 4 µg/mL (≈ 2.4 µM). Besides, the “MIC 3798 S. aureus (GISA)” value against 3798 S. aureus (GISA) turned out to be 4 µg/mL (≈ 2.4 µM). Besides, in the assay with 568 E. faecium (GSE), the “MIC 568 E. faecium (GSE)” value came to 4 µg/mL (≈ 2.4 µM). Besides, the “MIC 569 E. faecium (GRE)” value with 569 E. faecium (GRE) is above 64 µg/mL. The “MIC 559 E. faecalis (GSE)” value against 559 E. faecalis (GSE) was determined as 2 µg/mL (≈ 1.2 µM). Further, the “MIC 560 E. faecalis (GRE)” value in the assay with 560 E. faecalis (GRE) was above 64 µg/mL.

On to `CNC(CC(C)C)C(=O)NC1C(=O)NC(CC(N)=O)C(=O)NC2C(=O)NC3C(=O)NC(C(=O)NC(C(=O)O)c4cc(O)cc(O)c4-c4cc3ccc4O)C(O)c3ccc(c(Cl)c3)Oc3cc2cc(c3OC2OC(CO)C(O)C(O)C2OC2CC(C)(NC(=O)CNCc3ccc(F)cc3)C(O)C(C)O2)Oc2ccc(cc2Cl)C1O` (stereo not drawn) [Compound 291], for which the “MIC 533 S. epidermidis” value against 533 S. epidermidis was found to be 4 µg/mL (≈ 2.48 µM). The “MIC 602 S. haemolyticus” value with 602 S. haemolyticus is 4 µg/mL (≈ 2.48 µM). In addition, the “MIC 3797 S. aureus (GISA)” value against 3797 S. aureus (GISA) was 4 µg/mL (≈ 2.48 µM). Moreover, the “MIC 3798 S. aureus (GISA)” value with 3798 S. aureus (GISA) stood at 4 µg/mL (≈ 2.48 µM). Besides, the “MIC 568 E. faecium (GSE)” value with 568 E. faecium (GSE) worked out at 1 µg/mL (≈ 0.619 µM). The “MIC 569 E. faecium (GRE)” value with 569 E. faecium (GRE) amounted to 8 µg/mL (≈ 4.96 µM). Besides, the “MIC 559 E. faecalis (GSE)” value against 559 E. faecalis (GSE) was determined as 1 µg/mL (≈ 0.619 µM). In addition, the “MIC 560 E. faecalis (GRE)” value in the assay on 560 E. faecalis (GRE) stood at 8 µg/mL (≈ 4.96 µM).

As for `CNC(CC(C)C)C(=O)NC1C(=O)NC(CC(N)=O)C(=O)NC2C(=O)NC3C(=O)NC(C(=O)NC(C(=O)O)c4cc(O)cc(O)c4-c4cc3ccc4O)C(OC3CC(C)(N)C(O)C(C)O3)c3ccc(cc3)Oc3cc2cc(c3OC2OC(CO)C(O)C(O)C2OC2CC(C)(NC(=O)CNCc3ccc4c(c3)Cc3ccccc3-4)C(O)C(C)O2)Oc2ccc(cc2Cl)C1O` (stereo not drawn) [Compound 292], the “MIC 533 S. epidermidis” value in the assay with 533 S. epidermidis is 4 µg/mL (≈ 2.23 µM). Also, the “MIC 602 S. haemolyticus” value in the assay on 602 S. haemolyticus came to 4 µg/mL (≈ 2.23 µM). The “MIC 3797 S. aureus (GISA)” value in the assay with 3797 S. aureus (GISA) turned out to be 8 µg/mL (≈ 4.46 µM). In addition, the “MIC 3798 S. aureus (GISA)” value in the assay with 3798 S. aureus (GISA) was 8 µg/mL (≈ 4.46 µM). Besides, in the assay with 568 E. faecium (GSE), the “MIC 568 E. faecium (GSE)” value worked out at 2 µg/mL (≈ 1.12 µM). Also, in the assay on 569 E. faecium (GRE), the “MIC 569 E. faecium (GRE)” value was 32 µg/mL (≈ 17.8 µM). Also, the “MIC 559 E. faecalis (GSE)” value in the assay on 559 E. faecalis (GSE) came to 2 µg/mL (≈ 1.12 µM). In the assay on 560 E. faecalis (GRE), the “MIC 560 E. faecalis (GRE)” value was 32 µg/mL (≈ 17.8 µM).

In the case of `CNC(CC(C)C)C(=O)NC1C(=O)NC(CC(N)=O)C(=O)NC2C(=O)NC3C(=O)NC(C(=O)NC(C(=O)O)c4cc(O)cc(O)c4-c4cc3ccc4O)C(OC3CC(C)(N)C(O)C(C)O3)c3ccc(cc3)Oc3cc2cc(c3OC2OC(CO)C(O)C(O)C2OC2CC(C)(NC(=O)CNCc3ccc(F)cc3)C(O)C(C)O2)Oc2ccc(cc2Cl)C1O` (stereo not drawn) [Compound 293], in the assay on 533 S. epidermidis, the “MIC 533 S. epidermidis” value is 4 µg/mL (≈ 2.32 µM). Further, the “MIC 602 S. haemolyticus” value with 602 S. haemolyticus came to 4 µg/mL (≈ 2.32 µM). Moreover, the “MIC 3797 S. aureus (GISA)” value against 3797 S. aureus (GISA) was found to be 8 µg/mL (≈ 4.64 µM). Further, in the assay on 3798 S. aureus (GISA), the “MIC 3798 S. aureus (GISA)” value amounted to 8 µg/mL (≈ 4.64 µM). Also, in the assay with 568 E. faecium (GSE), the “MIC 568 E. faecium (GSE)” value stood at 4 µg/mL (≈ 2.32 µM). For the same compound, the “MIC 569 E. faecium (GRE)” value in the assay with 569 E. faecium (GRE) is 16 µg/mL (≈ 9.29 µM). In the assay with 559 E. faecalis (GSE), the “MIC 559 E. faecalis (GSE)” value was 4 µg/mL (≈ 2.32 µM). In the assay with 560 E. faecalis (GRE), the “MIC 560 E. faecalis (GRE)” value was 16 µg/mL (≈ 9.29 µM).

Turning to `CNC(CC(C)C)C(=O)NC1C(=O)NC(CC(N)=O)C(=O)NC2C(=O)NC3C(=O)NC(C(=O)NC(C(=O)O)c4cc(O)cc(O)c4-c4cc3ccc4O)C(OC3CC(C)(N)C(O)C(C)O3)c3ccc(cc3)Oc3cc2cc(c3OC2OC(CO)C(O)C(O)C2OC2CC(C)(NC(=O)CNCc3ccc(C(F)(F)F)cc3)C(O)C(C)O2)Oc2ccc(cc2Cl)C1O` (stereo not drawn) [Compound 294], the “MIC 533 S. epidermidis” value against 533 S. epidermidis turned out to be 1 µg/mL (≈ 0.564 µM). The “MIC 602 S. haemolyticus” value in the assay with 602 S. haemolyticus was 1 µg/mL (≈ 0.564 µM). Moreover, the “MIC 3797 S. aureus (GISA)” value with 3797 S. aureus (GISA) is 4 µg/mL (≈ 2.26 µM). Also, the “MIC 3798 S. aureus (GISA)” value against 3798 S. aureus (GISA) turned out to be 4 µg/mL (≈ 2.26 µM). In the assay with 568 E. faecium (GSE), the “MIC 568 E. faecium (GSE)” value was determined as 0.5 µg/mL (≈ 0.282 µM). The “MIC 569 E. faecium (GRE)” value against 569 E. faecium (GRE) is above 64 µg/mL. The “MIC 559 E. faecalis (GSE)” value against 559 E. faecalis (GSE) was 0.5 µg/mL (≈ 0.282 µM). In addition, in the assay with 560 E. faecalis (GRE), the “MIC 560 E. faecalis (GRE)” value was above 64 µg/mL.

With `CNC(CC(C)C)C(=O)NC1C(=O)NC(CC(N)=O)C(=O)NC2C(=O)NC3C(=O)NC(C(=O)NC(C(=O)O)c4cc(O)cc(O)c4-c4cc3ccc4O)C(O)c3ccc(c(Cl)c3)Oc3cc2cc(c3OC2OC(CO)C(O)C(O)C2OC2CC(C)(NC(=O)CNc3ccc4ccccc4n3)C(O)C(C)O2)Oc2ccc(cc2Cl)C1O` (stereo not drawn) [Compound 298], the “MIC 533 S. epidermidis” value against 533 S. epidermidis amounted to 8 µg/mL (≈ 4.9 µM). Also, the “MIC 602 S. haemolyticus” value against 602 S. haemolyticus turned out to be 8 µg/mL (≈ 4.9 µM). Besides, in the assay on 3797 S. aureus (GISA), the “MIC 3797 S. aureus (GISA)” value came out at 8 µg/mL (≈ 4.9 µM). For the same compound, the “MIC 3798 S. aureus (GISA)” value in the assay with 3798 S. aureus (GISA) came out at 8 µg/mL (≈ 4.9 µM). Moreover, the “MIC 568 E. faecium (GSE)” value against 568 E. faecium (GSE) came to 4 µg/mL (≈ 2.45 µM). Besides, the “MIC 569 E. faecium (GRE)” value in the assay with 569 E. faecium (GRE) is above 64 µg/mL. Besides, in the assay on 559 E. faecalis (GSE), the “MIC 559 E. faecalis (GSE)” value came to 2 µg/mL (≈ 1.22 µM). Also, in the assay with 560 E. faecalis (GRE), the “MIC 560 E. faecalis (GRE)” value is 64 µg/mL (≈ 39.2 µM).
